Data as given in patent publication US8481730B2, “Method of synthesis of Bosentan, its polymorphic forms and its salts” (CIPLA Limited, priority 2008, dated 2013).

Conditions: on exposure to air; "stable" = non-hygroscopic, does not pick up moisture even in a highly humid atmosphere
From the text: According to another aspect of the present invention, there is provided anhydrous bosentan.

## COc1ccccc1Oc1c(NS(=O)(=O)c2ccc(C(C)(C)C)cc2)nc(-c2ncccn2)nc1OCCO [Form B, Bosentan Form B]
  stability / hygroscopicity (moisture pick-up): stable and non-hygroscopic
